# Measurements taken from US6770728B2, “Process for preparing ocular lens with urethane compound and process for preparing urethane compound for medical instruments” (Menicon Co., Ltd., priority 1999, dated 2004).
# Assay: Solubility of catalysts in various solvents (maximum amount completely soluble)
# Type: physicochemical
# Method: Solubility of a various kind of catalysts in a various kind of solvents (water, methanol, acetone, acetonitrile, n-hexane, methylene chloride) was evaluated by studying maximum amount of catalysts completely soluble in a various kind of solvents.
substance,measurement,setting,value
Zinc acetylacetonate [ZnAA],Solubility,solvent: acetone,1000 µg/mL
same,Solubility,solvent: acetonitrile,insoluble
same,Solubility,solvent: methanol,50000 µg/mL
same,Solubility,solvent: methylene chloride,10000 µg/mL
same,Solubility,solvent: n-hexane,insoluble
same,Solubility,solvent: water,insoluble
